Holding throughout (type): cell-based
The test system of assay [1] is human lymphoma Daudi B cells. Kind of assay: CCK8 growth inhibition, Daudi B. The settings on record: CCK8 method, read-out: IC50 of inhibitory activity on tumor cell growth, Daudi B.
The test system of assay [2] is murine leukemia WEHI-3 cells. Kind of assay: CCK8 growth inhibition, WEHI-3. The settings on record: Mus musculus, CCK8 method, read-out: IC50 of inhibitory activity on tumor cell growth, WEHI-3. For orientation: Formazan colour is commonly taken as a measure of viable cells.
Assay [3] concerns human lymphoma Raji cells. Kind of assay: CCK8 growth inhibition, Raji. The settings on record: CCK8 method, read-out: IC50 of inhibitory activity on tumor cell growth, Raji.
The subject of assay [4] is murine spleen lymphocytes. The assay can be described thus: Cytokine stimulation of murine spleen lymphocytes, ELISA. The settings on record: mouse immune cells (spleen lymphocytes), 24 hrs, ELISA; for EC50: Lymphocyte. How it is done:
The stimulating effect of a series of GY compounds or drugs on murine spleen lymphocytes was detected by ELISA.
6-week-old Balb/c mice were sacrificed by cervical dislocation, spleens were taken under aseptic conditions. A 1 mL sterile syringe and a 200 mesh cell strainer were adopted to quickly grind and disperse the spleen into individual cells in 4 mL of a murine lymphocyte separation solution (Dakko's, 7211011). A resulting cell homogenate was transferred to a 15 mL centrifuge tube, then 1 mL of a RPMI 1640 medium (Hyclone, SH30809.01) was slowly added. Spleen lymphocytes were separated by a density gradient centrifugation method (800×g, 30 min), washed, red blood cells therein were lysed, such that a dispersed spleen lymphocyte suspension was obtained. Cells were counted by a hemocytometer, to calculate the cell concentration. A RPMI 1640 complete medium was adopted to adjust the cell suspension to a concentration of 1×10^6/ml/well, and the cells were then plated on a 24-well cell culture plate (Corning, 3524).
Murine spleen lymphocytes were stimulated according to the gradient concentrations of the series of GY compounds or drugs, and incubated in a 37° C., 5% carbon dioxide incubator for 24 hrs.
• (1) Coating: a Capture antibody (primary antibody, purchased from Invitrogen) was diluted with a 1×Coating Buffer (coating buffer, purchased from Invitrogen) to a recommended concentration, and 100 μL of a resulting diluted solution was added to each well of a 96-well microtiter plate, the plate was sealed with a sealing film at 4° C. overnight. • (2) Washing: a liquid in each well was discarded, then 300 μL of a PBST working solution was added to each well and kept for 1 min, thereafter, the liquid therein was discarded. The washing process was repeated 3 times. • (3) Blocking: 200 μL of a blocking solution was added to each well. The plate was sealed with a sealing film, and placed on a shaker and incubated at room temperature for 1 hr, then washed and patted to be dry. • (4) Sample incubation: a sample was collected and centrifuged to collect a supernatant. Standards, samples, negative controls, and blank controls were provided in the 96-well microtiter plate, and each concentration or sample were provided with 2 replicates. 100 μL of a standard or sample was added to each well, thereafter, the plate was sealed with a sealing film, incubated on a shaker at room temperature for 1 hr or overnight at 4° C., then washed and pated to be dry. • (5) Secondary antibody incubation: the detection antibody (secondary antibody, purchased from Invitrogen) was diluted to a recommended concentration with a dilution buffer, 100 μL of a secondary antibody was added to each well. After being sealed with a sealing film, the plate was incubated on a shaker at room temperature for 1 hr, then washed and patted to be dry. • (6) Avidin-HRP incubation: Avidin-HRP (horseradish peroxidase marker, purchased from Invitrogen) was diluted to the recommended concentration with a dilution buffer, 100 μL of Avidin-HRP was added to each well. After being sealed with a sealing film, the plate was placed on a shaker and incubated at room temperature for 30 mins, washed 5-7 times by the process of step 2), and patted to be dry. • (7) TMB color development: 100 μL of a TMB color development solution (purchased from Invitrogen) was added to each well, for carrying out reaction for 15 mins at room temperature in the dark. • (8) Stopping reaction: 50 μL of 1M H2SO4 solution was added to each well. • (9) Reading an absorbance value by a microplate reader: the OD value at 450 nm wavelength was read. A standard curve and a parameter nonlinear regression equation were drawn, and a sample concentration was calculated according to the obtained formula.

Assay [5] deals with T1, TLR7 (Homo sapiens, UniProt Q9NYK1).
T1 construct: host or cells: HEK-Blue hTLR7 cells (HEK293-derived SEAP reporter line)
T1 sequence (Q9NYK1 27-1049): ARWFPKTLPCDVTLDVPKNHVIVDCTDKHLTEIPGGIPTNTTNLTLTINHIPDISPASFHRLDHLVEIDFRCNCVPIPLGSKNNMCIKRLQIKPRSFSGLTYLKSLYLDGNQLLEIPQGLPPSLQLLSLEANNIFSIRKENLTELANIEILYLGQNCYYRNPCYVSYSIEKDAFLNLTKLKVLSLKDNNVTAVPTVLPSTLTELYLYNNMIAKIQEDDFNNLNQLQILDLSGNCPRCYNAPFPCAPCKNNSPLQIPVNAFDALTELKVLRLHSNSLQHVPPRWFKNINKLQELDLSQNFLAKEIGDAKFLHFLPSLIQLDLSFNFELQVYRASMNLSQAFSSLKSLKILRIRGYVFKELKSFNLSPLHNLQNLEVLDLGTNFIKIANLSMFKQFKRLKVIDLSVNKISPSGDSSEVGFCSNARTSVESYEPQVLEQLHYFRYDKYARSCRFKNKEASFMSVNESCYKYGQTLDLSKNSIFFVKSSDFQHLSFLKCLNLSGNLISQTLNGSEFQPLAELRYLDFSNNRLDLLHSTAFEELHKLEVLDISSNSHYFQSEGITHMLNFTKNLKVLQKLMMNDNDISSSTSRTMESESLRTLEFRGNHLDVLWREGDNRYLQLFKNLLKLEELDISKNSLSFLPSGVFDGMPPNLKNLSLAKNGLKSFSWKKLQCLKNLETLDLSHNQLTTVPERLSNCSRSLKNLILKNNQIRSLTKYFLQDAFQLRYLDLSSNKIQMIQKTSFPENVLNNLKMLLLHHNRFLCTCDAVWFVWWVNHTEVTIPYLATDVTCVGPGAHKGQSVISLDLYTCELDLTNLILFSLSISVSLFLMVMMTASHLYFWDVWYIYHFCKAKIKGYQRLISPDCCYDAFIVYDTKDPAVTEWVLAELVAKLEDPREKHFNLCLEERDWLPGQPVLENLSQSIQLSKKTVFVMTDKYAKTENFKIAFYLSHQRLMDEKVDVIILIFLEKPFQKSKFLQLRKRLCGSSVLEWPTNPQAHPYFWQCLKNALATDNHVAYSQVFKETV
The assay can be described thus: Detection of TLR7 activation (HEK-Blue Detection), SEAP reporter. The settings on record: HEK-Blue hTLR7 cells, 6-16 hrs, absorbance 650 nm; read-out: TLR7(EC50/μM). How it is done:
HEK-Blue™hTLR7 cells (purchased from InvivoGen) in a logarithmic growth phase were taken, with a growth medium (Gibco, C11995500BT, Invivo Gen, ant-nr) discarded. The cells were gently rinsed twice by an appropriate amount of 37° C. PBS (Hyclone, SH30256.01), a rinsed PBS was discarded. Thereafter, the cells were added with 2-5 mL of 37° C. PBS, incubated for 1 to 2 minutes, and then scraped by a cell scraper and gently pipetted to be dispersed into a single cell suspension. A hemocytometer was adopted to count the cells and a cell concentration was calculated. After that, a HEK-Blue™ Detection solution (purchased from Invivo Gen) was adopted to adjust the cell concentration of the cell suspension to 2.5×10^4/180 μL per well for cell plating on a 96-well cell culture plate. The HEK-Blue™hTLR7 cells were stimulated according to the designed series of GY compound or drug concentrations (0.01 μM, 0.1 μM, 1 μM, 5 μM, 15 μM, and 30 μM), with 3 replicate wells for each concentration, and were incubated at 37° C., 5% carbon dioxide for 6-16 hrs. After the incubation, the absorbance value was read at 650 nm with a full-wavelength microplate reader (BioTek-Epoch), as listed in Table 2.
Relative induction=(average OD value of experimental group−average OD value of negative control group)/average OD value of negative control group.
Specific details for the above method may be referred to https: • //www.invivogen.com/hek-blue-htlr7; https://www.invivogen.com/sites/default/files/invivogen/products/files/hek_blue_htlr7_tds.pdf.

Assay [6] has as its system human leukemia HL-60 cells. The assay can be described thus: CCK8 growth inhibition, HL60. The settings on record: read-out: IC50 of inhibitory activity on tumor cell growth, HL60.
Assay [7] has as its system A549. The assay can be described thus: CCK8 growth inhibition, A549. The settings on record: Homo sapiens, CCK8 method, read-out: IC50 of inhibitory activity on tumor cell growth, A549.
Assay [8] relates to Murine breast cancer 4T1 cells. Kind of assay: CCK8 growth inhibition, 4T1. The settings on record: Mus musculus, CCK8 method, 24 hrs (or 36, 72 hrs), read-out: IC50 of inhibitory activity on tumor cell growth, 4T1. The protocol: Murine breast cancer 4T1 cells (Kailian Biotech, KG338) in a logarithmic growth phase were selected and washed with PBS, digested with 0.25% trypsin (including EDTA), stopped digestion with a DMEM complete medium, then centrifuged, and resuspended to form a suspension of 4T1 single cells. Cells were counted using a hemocytometer and a cell concentration was calculated. A DMEM complete medium was used to adjust the cell suspension to a target concentration, and thereafter, the cells were plated on a 96-well cell culture plate according to 4×10^3/100 μL per well. After adherering to the wall, the 4T1 cells were stimulated according to the designed concentration gradients of the series of GY compounds or drugs, with each concentration being provided with 3 replicate holes. The 96-well cell culture plate with 4T1 cells seeded and dosing was placed in the cell incubator, and incubated at 37° C., 5% carbon dioxide for 24 hrs (or 36, 72 hrs). After the incubation time was over, 10 μL of CCK8 reagent was added to each well and incubated for 1-2 hrs at 37° C. A full-wavelength microplate reader was adopted to test an OD value at 450 nm wavelength.
CCK8 calculation formula is as follows: • Cell survival rate (100%)=[…]/(Ac−Ab)×100% • As: Absorbance of wells containing cells, CCK8 solution, and drug solution • Ac: Absorbance of wells containing cells and CCK8 solution, and no drug solution • Ab: Absorbance of wells containing CCK8 solution, no cells, and no drug solution
Cell growth inhibition rate (%)=1−((OD value of experimental group−OD value of blank group)/(OD value of control group−OD value of blank group)×100%).

Assay [9] concerns human leukemia K562 cells. The assay can be described thus: CCK8 growth inhibition, K562. The settings on record: CCK8 method, read-out: IC50 of inhibitory activity on tumor cell growth, K562.
Assay [10] relates to murine colon cancer CT-26 cells. Kind of assay: CCK8 growth inhibition, CT26. The settings on record: Mus musculus, CCK8 method, read-out: IC50 of inhibitory activity on tumor cell growth, CT26.
The subject of assay [11] is black melanoma B16 cells. Kind of assay: CCK8 growth inhibition, B16. The settings on record: Mus musculus, CCK8 method, read-out: IC50 of inhibitory activity on tumor cell growth, B16.
Assay [12] concerns HEK293T cells. The assay can be described thus: CCK8 growth inhibition, HEK-293T. The settings on record: Homo sapiens, CCK8 method, read-out: IC50 of inhibitory activity on cell growth, HEK-293T.
[13] abbreviates: read-out: TNF-alpha EC50 of cytokine stimulating activity.

Like-named read-outs stand apart in the source and are kept apart here.

For orientation: IC50 means the midpoint of a concentration-inhibition curve.

Turning to `C=C(CC(=O)NCCOCCOCCOCCn1cc(Cn2c(O)nc3c(N)nc(OCCCC)nc32)nn1)C(=O)N1CCC(C2CCNc3c(C(N)=O)c(-c4ccc(Oc5ccccc5)cc4)nn32)CC1` (single isomer, unassigned) [GY132], the half-maximal inhibitory concentration (IC50) turned out to be 5.36 µM in [1], 14.7 µM in assay [2], 2.03 µM in assay [3] and 5.13 µM in [6] (CCK8 method). The EC50 in assay [4] (setting [13]) was 2.15 µM; in assay [5] it was 5.42 µM. Moreover, the “IFN-gamma EC50 of cytokine stimulating activity” value in [4] is listed as “No fit”. For the same compound, the “IL-6 EC50 of cytokine stimulating activity” value in [4] is “No fit”.

For the compound `C=C(CC(=O)NCCOCCOCCOCCn1cc(Cn2c(O)nc3c(N)nc(OCCCC)nc32)nn1)C(=O)N1CCC(C2CCNc3c(C(N)=O)c(-c4ccc(Oc5ccccc5)cc4)nn32)CC1` (single isomer, unassigned) [GY137], the IC50 in [1] stood at 24.6 µM; in assay [3], 37.2 µM; in assay [6] (CCK8 method) it was 27 µM. Besides, the EC50 in [5] was found to be 2.92 µM.

On to `CCCCOc1nc(N)c2nc(O)n(Cc3cn(CCOCCOCCOCC(=O)Nc4cc(Nc5nccc(-c6cn(C)c7ccccc67)n5)c(OC)cc4N(C)CCN(C)C)nn3)c2n1` [GY104], for which the values for the EC50 in [4] (read-out: IL-6 EC50 of cytokine stimulating activity) and in assay [4] (setting [13]) were 27.7 µM and 34.7 µM, respectively. The “IFN-gamma EC50 of cytokine stimulating activity” value in [4] is “No fit”. The IC50 in [7] is 17.1 µM.

As for `C=C(CC(=O)NCCOCCOCCOCCn1cc(Cn2c(O)nc3c(N)nc(OCCCC)nc32)nn1)C(=O)N1CCC[C@@H](n2nc(-c3ccc(Oc4ccccc4)cc3)c3c(N)ncnc32)C1` [GY131], the IC50 in [8] stood at 2.86 µM; in assay [9], 92.1 µM; in assay [1] (Homo sapiens, Daudi), 14.1 µM; in [2], 7.38 µM; in assay [3] (Homo sapiens, Raji), 10.4 µM; in [10] it was 166 µM. The IC50 in assay [11] came to 40.7 µM; in assay [12], 25.1 µM; in [6] (Homo sapiens, HL-60, CCK8 method) it was 92.1 µM. For the same compound, the EC50 in assay [5] was 4.97 µM.

On to `CCCCOc1nc(N)c2nc(O)n(Cc3cn(CCOCCOCCOCC(=O)N4CCN(C/C=C/C(=O)N5CCCC(n6nc(-c7ccc(Oc8ccccc8)cc7)c7c(N)ncnc76)C5)CC4)nn3)c2n1` (stereo not shown) [GY138], for which the IC50 in [2] was 47.6 µM.

With `C=C(CC(=O)N1CCC(C2CCN=C3C(C(N)=O)=C(c4ccc(Oc5ccccc5)cc4)NN32)CC1)C(=O)NCCOCCOCCOCCn1cc(Cn2c(O)nc3c(N)nc(OCCCC)nc32)nn1` (stereo not shown) [GY150], the IC50 in assay [2] is 22.3 µM.

Values taken from patent US12440571B2, “Immune agonists” (SHENZHEN UNIVERSITY, priority 2020, dated 2025).
